Laboratory results taken from patent US20220073557A1, “FLUORINATED BILE ACIDS” (NZP UK LIMITED, priority 2018, published 2022).
Structures can show the parent of a compound that is named as a salt.

Key:
[1] = test system: sporadic PD patient fibroblasts; experiment: Cellular ATP levels (ATPlite, normalised to CyQUANT DNA content) in sporadic PD patient fibroblasts; assay type: cell-based; settings: Homo sapiens, Fibroblast, 24 h; for activity at 60 pM: read-out: Cellular ATP levels Bottom (% of vehicle treated); for activity at 0.3 µM: read-out: Cellular ATP levels Top (% of vehicle treated)
Procedure: (§1) Fibroblasts were cultured in DMEM (Invitrogen) and routinely subcultured every 3-5 days using trypsin to dissociate them.
The ATP protocol is generally as described in Mortiboys et al, “Mitochondrial function and morphology are impaired in parkin-mutant fibroblasts”, Ann Neurol. 2008 November; 64(5):555-65. Briefly, fibroblasts were cultured as and plated into white 384 well plates with 5000 cells per well in 50 μl of media volume. The plates are left overnight in an incubator to allow the fibroblasts to adhere to the plate surface. The following morning the Glucose based medium is replaced with 25 μl of Galactose based medium. The compounds are added to the plates using a ECHO 550 liquid handling system. The wells were dosed to provide an 8-point concentration range of 0.06 nM-300 nM of compound. After dosing the wells are topped up with a further 25 μl of Galactose based medium and then left in an incubator for 24 hours. Following this incubation the medium is removed from the plate and the wells are washed twice with sterile PBS. The wells are filled with 25 μl of Sterile PBS followed by 12.5 μl of Lysis solution from the ATPlite™ Luminescence ATP detection assay system (Perkin Elmer), including 16 cell free wells to use as blank controls. The plate is then placed on a rotary shaker for 5 mins at 700 rpm. Following the shaking 12.5 μl of ATP substrate solution (Perkin Elmer) is added to each well and a further 5 min of shaking. The plate is then placed in darkness for 10 minutes prior to reading. Using a PHERAStar® plate reader, luminescence intensity is recorded. Following the ATP assay the plates are immediately assayed for DNA content in a CyQUANT® assay.
Immediately following The ATP assay DNA content is assessed with the CyQUANT® NF Cell Proliferation Assay Kit (ThermoFisher). CyQUANT® buffer is prepared immediately before the assay and is comprised of 1 ul CyQUANT® dye per ml×1 HBSS solution. 12.5 ul of CyQUANT® buffer is added to each well. Plate left in incubator for 1 hour then read on a PHERAStar® Plate reader with excitation at 497 nm and emission at 520 nm. ATP Quantification for each well is determined using the following formula: […]
(§2) After the assays had been repeated in triplicate per line and compound the data was then inputted into Graph pad Prism 7 software suite where a dose response curve is generated using the default “[Agonist] vs response (three parameters)” equation.
(§3) From this EC50 values, lowest response and maximal response were taken and used to calculate the Geometric mean between the 5 different lines assessed.
Cellular ATP levels were measured in fibroblasts from 6 (Table 3) or 3 (Table 4) patients with sporadic Parkinson's disease when treated with Compounds of the invention or Comparator compounds. The results are shown in Tables 3 and 4, where “Bottom”=max response with lowest dose of compound (0.06 nM) and “top”=max response with highest dose of compound (300 nM).

[2] = test system: sporadic PD patient fibroblasts; experiment: Mitochondrial membrane potential (MMP, TMRM) in sporadic PD patient fibroblasts; assay type: cell-based; settings: Homo sapiens, Fibroblast, 24 h; for activity at 60 pM: read-out: MMP Bottom (% of vehicle treated); for activity at 0.3 µM: read-out: MMP Top (% of vehicle treated)
Procedure: as §1
Fibroblasts were cultured and plated into a Griener black 384 pClear® plate at 10000 cells per well in 50 μl of media volume. The plates are left overnight in an incubator to allow the fibroblasts to adhere to the plate surface. The following morning the Glucose based medium is replaced with 25 μl of Galactose based media. The plates were then dosed with the compounds using an ECHO® 550 liquid handling system. The wells were dosed to provide an 8-point concentration range of 0.06 nM-300 nM of compound. After dosing the wells are topped up with a further 25 μl of Galactose based medium and then left in an incubator for 24 hours. After 24 hours, the medium is removed from the wells and replaced with 25 ul phenol free Minimal essential medium with 100 nM TMRM (Sigma) and 10 μM Hoechst Stain (Sigma). The plate is returned to the incubator for another hour after which the stain medium is removed and replaced with 25 ul Phenol free MEM. The plate is then imaged using an IN Cell high content microscope (GE Healthcare) with 10 fields of view per well in 2 channels, Cy3 excitation 542 nm, emission 604-64 nm; and the DAPI excitation 350 nm, emission 450-55 nm at 37° C. with CO2. After imaging the plate is disposed of and the images are Data mined using the INCell developer Toolkit (GE Healthcare).
as §2, §3
The mitochondrial membrane potential was measured in fibroblasts from 6 (Table 1) or 3 (Table 2) patients with sporadic Parkinson's disease when treated with Compounds of the invention or Comparator compounds. The results are shown in Tables 1 and 2, where “Bottom”=max response with lowest dose of compound (0.06 nM) and “top”=max response with highest dose of compound (300 nM).

[3] = read-out: Cellular ATP levels EC50 (nM)
[4] = 3 sporadic PD patient fibroblasts, read-out: Cellular ATP levels EC50
[5] = max response with highest dose (300 nM), 3 sporadic PD patient fibroblasts
[6] = max response with lowest dose (0.06 nM), 3 sporadic PD patient fibroblasts
[7] = 3 sporadic PD patient fibroblasts, read-out: MMP EC50
[8] = 6 sporadic PD patient fibroblasts, read-out: Cellular ATP levels EC50
[9] = max response with highest dose (300 nM), 6 sporadic PD patient fibroblasts
[10] = max response with lowest dose (0.06 nM), 6 sporadic PD patient fibroblasts
[11] = 6 sporadic PD patient fibroblasts, read-out: MMP EC50

Row | Compound | activity at 60 pM [1] | EC50 [1, 3] | activity at 0.3 µM [1] | activity at 60 pM [2] | EC50 ([2]; read-out: MMP EC50 (nM)) | activity at 0.3 µM [2] | EC50 [1, 8] | activity at 0.3 µM [1, 9] | activity at 60 pM [1, 10] | EC50 [2, 11] | activity at 0.3 µM [2, 9] | activity at 60 pM [2, 10] | further results
1 | C[C@H](CCC(=O)NCCCS(=O)(=O)O)[C@H]1CC[C@H]2[C@@H]3[C@@H](O)C[C@@H]4C[C@@H](O)C(F)(F)C[C@]4(C)[C@H]3CC[C@]12C [Compound 20, Sodium 3-(2,2-difluoro-3β,7β-dihydroxy-5β-cholan-24-oyl) amino-propanesulfonate] | 102% | 34.7 nM | 122% | 99.8% | 17.7 nM | 147% |  |  |  |  |  |  | 
2 | C[C@H](CCC(=O)N(C)CCS(=O)(=O)O)[C@H]1CCC2C3C(CC[C@@]21C)[C@@]1(C)CC(F)(F)[C@H](O)C[C@H]1C[C@@H]3O (stereo partly drawn) [Compound 19, Sodium N-(methyl)-N-(2,2-difluoro-3β,7β-dihydroxy-5β-cholan-24-amide) ethylsulfonic acid] | 98.8% | 8.9 nM | 122% | 95.9% | 104 nM | 143% |  |  |  |  |  |  | 
3 | C[C@H](CCC(=O)N1CCC[C@H](C(=O)O)C1)[C@H]1CC[C@H]2[C@@H]3[C@@H](O)C[C@@H]4C[C@@H](O)C(F)(F)C[C@]4(C)[C@H]3CC[C@]12C [Compound 14, Sodium 1-(2,2-difluoro-3β,7β-dihydroxy-5β-cholan-24-oyl)-piperidine-3-carboxylate] | 107% | 1.3 nM | 127% | 94.3% | 18.9 nM | 167% |  |  |  |  |  |  | 
4 | C[C@H](CCC(=O)NC1CCCS(=O)(=O)C1)[C@H]1CC[C@H]2[C@@H]3[C@@H](O)C[C@@H]4C[C@@H](O)C(F)(F)C[C@]4(C)[C@H]3CC[C@]12C (stereo partly drawn) [Compound 31, N-(2,2-difluoro-3β,7β-dihydroxy-5β-cholan-24-oyl) 1,1-dioxidotetrahydro-2H-thiopyran-3-ylamine] |  |  |  |  |  |  |  |  |  |  |  |  | EC50 [1, 4]: 13.3 nM; activity at 0.3 µM [1, 5]: 133%; activity at 60 pM [1, 6]: 108%; EC50 [2, 7]: 5.5 nM; activity at 0.3 µM [2, 5]: 151%; activity at 60 pM [2, 6]: 99.6%
5 | C[C@H](CCC(=O)O)[C@H]1CC[C@H]2[C@@H]3[C@@H](O)C[C@@H]4C[C@@H](O)C(F)=C[C@]4(C)[C@H]3CC[C@]12C [Compound F, 2-fluoro-3β,7β-dihydroxy-5β-chol-1-enic acid, reference compound] |  |  |  |  |  |  | 1.91 nM | 112% | 99.9% | 0.674 nM | 108% | 110% | 
6 | C[C@H](CCC(=O)NCC(=O)O)[C@H]1CCC2C3C(CC[C@@]21C)[C@@]1(C)CC(F)(F)[C@H](O)C[C@H]1C[C@@H]3O (stereo partly drawn) [Compound 17, Sodium N-(2,2-difluoro-3β,7β-dihydroxy-5β-cholan-24-amide)-methylcarboxylic acid] | 101% | 17.2 nM | 132% | 88.9% | 128 nM | 152% |  |  |  |  |  |  | 
7 | C[C@H](CCC(=O)O)[C@H]1CC[C@H]2[C@@H]3[C@H](O)C[C@@H]4C[C@H](O)C(F)=C[C@]4(C)[C@H]3CC[C@]12C [Compound H, 2-fluoro-3α,7α-dihydroxy-5β-chol-1-enic acid, reference compound] |  |  |  |  |  |  | 0.125 nM | 121% | 87.6% | 4.58 nM | 109% | 99.8% | 
8 | C[C@H](CCC(=O)NCCOS(=O)(=O)O)[C@H]1CC[C@H]2[C@@H]3[C@@H](O)C[C@@H]4C[C@@H](O)C(F)(F)C[C@]4(C)[C@H]3CC[C@]12C [Compound 22, Sodium N-(2,2-difluoro-3β,7β-dihydroxy-5β-cholan-24-oyl)-2-aminoethyl sulfate] | 95.9% | 6.2 nM | 116% | 99.3% | 45.4 nM | 146% |  |  |  |  |  |  | 
9 | C[C@H](CCC(=O)O)[C@H]1CC[C@H]2[C@@H]3C(=O)C[C@@H]4CC(=O)C(F)(F)C[C@]4(C)[C@H]3CC[C@]12C [Compound E, 2,2-difluoro-3,7-dioxo-5β-cholanic acid, reference compound] |  |  |  |  |  |  | 18.8 nM | 136% | 81.6% | 23.3 nM | 112% | 105% | 
10 | C[C@H](CCC(=O)N1CCS(=O)(=O)CC1)[C@H]1CCC2C3C(CC[C@@]21C)[C@@]1(C)CC(F)(F)[C@H](O)C[C@H]1C[C@@H]3O (stereo partly drawn) [Compound 30, N-(2,2-difluoro-3β,7β-dihydroxy-5β-cholan-24-oyl)-thiomorpholine-dioxide] |  |  |  |  |  |  |  |  |  |  |  |  | EC50 [1, 4]: 4.2 nM; activity at 0.3 µM [1, 5]: 115%; activity at 60 pM [1, 6]: 96.7%; EC50 [2, 7]: 21 nM; activity at 0.3 µM [2, 5]: 156%; activity at 60 pM [2, 6]: 98.4%
11 | C[C@H](CCC(=O)O)[C@H]1CC[C@H]2[C@@H]3C(=O)C[C@@H]4CC(=O)C(F)=C[C@]4(C)[C@H]3CC[C@]12C [Compound G, 2-fluoro-3,7-dioxo-5β-chol-1-enic acid, reference compound] |  |  |  |  |  |  | 58.4 nM | 92.7% | 83.3% | 282 nM | 123% | 103% | 
12 | C[C@H](CCC(=O)O)[C@H]1CC[C@H]2[C@@H]3[C@@H](O)C[C@@H]4C[C@H](O)C(F)(F)C[C@]4(C)[C@H]3CC[C@]12C [Compound 9, 2,2-difluoro-3α,7β-dihydroxy-5β-cholanic acid] | 99% | 21.3 nM | 103% | 110% | 2.19 nM | 112% |  |  |  |  |  |  | 
